Results reported in PMC3408624 (Chemistry & biology, 2012).
“Also recorded” adds a separate entry of the source. Where two headings read alike, the source gives them in different places.

Experiments:
[1] = biological target: T1, anthrax lethal factor (LF) (Bacillus anthracis, UniProt P15917); assay: biochemical; assay type: biochemical
[2] = biological target: LF cleavage of endogenous MKK3 and MKK4 in RAW264.7 cell lysate (Bacillus anthracis, UniProt P15917); assay type: biochemical
[3] = biological target: T1, anthrax lethal factor (LF); assay: biochemical; assay type: biochemical; remark: listed apart in the source
[4] = tested on: RAW264.7 cells; assay type: cell-based
[5] = tested on: RAW264.7 cells; assay type: cell-based; remark: listed apart in the source
[6] = biological target: T1, anthrax lethal factor (LF); assay type: biochemical
[7] = read-out: IC50 (µM), MKK6 cleavage

Chain of LF cleavage of endogenous MKK3 and MKK4 in RAW264.7 cell lysate (P15917 34-809 limits assumed): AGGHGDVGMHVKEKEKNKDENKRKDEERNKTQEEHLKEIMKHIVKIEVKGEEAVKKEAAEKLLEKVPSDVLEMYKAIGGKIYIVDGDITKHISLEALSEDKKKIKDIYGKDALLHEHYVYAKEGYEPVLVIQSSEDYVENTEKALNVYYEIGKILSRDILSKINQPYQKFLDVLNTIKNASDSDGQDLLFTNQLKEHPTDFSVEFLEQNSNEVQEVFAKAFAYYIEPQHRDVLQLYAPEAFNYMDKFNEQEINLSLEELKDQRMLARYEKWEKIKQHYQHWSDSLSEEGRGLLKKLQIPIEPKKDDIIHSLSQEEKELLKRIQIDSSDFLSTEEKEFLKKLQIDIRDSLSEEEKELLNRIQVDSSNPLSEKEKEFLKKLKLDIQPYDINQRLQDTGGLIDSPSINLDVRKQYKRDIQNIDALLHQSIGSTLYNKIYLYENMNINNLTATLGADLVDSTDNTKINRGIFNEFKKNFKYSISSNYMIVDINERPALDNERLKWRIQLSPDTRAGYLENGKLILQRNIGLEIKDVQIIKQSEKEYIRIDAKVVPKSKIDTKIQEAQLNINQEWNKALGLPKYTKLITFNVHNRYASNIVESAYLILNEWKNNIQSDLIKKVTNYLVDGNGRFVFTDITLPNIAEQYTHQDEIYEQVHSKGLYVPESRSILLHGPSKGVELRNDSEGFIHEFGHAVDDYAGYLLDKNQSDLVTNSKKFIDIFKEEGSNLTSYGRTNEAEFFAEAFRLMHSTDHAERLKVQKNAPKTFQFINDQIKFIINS
T1 sequence (P15917 34-809 limits assumed): as above

Row | Molecule | IC50 [1] [µM] | Inhibition of MKK6 cleavage by LF (structure-activity profile, in words) [1] | IC50 [1, 7] [µM] | Inhibition of MKK3 cleavage by LF in cell lysate [2] | Inhibition of MKK4 cleavage by LF in cell lysate [2] | Inhibition of LF cleavage of a peptide substrate (in words) [3] | MKK3 cleavage in intact LeTx-treated cells [4] | Protection against LeTx-induced cell death (MTT viability) [5] | other results
1 | COc1ccccc1C=O [o-anisaldehyde, reference compound] |  |  |  |  |  |  |  |  | Inhibition of MKK6 cleavage by LF (in words) [1]: no detectable inhibition
2 | CCCCCC(=O)Cc1cc(O)cc2c1C(=O)Oc1cc(O)c(C(=O)O)c(CCCCC)c1O2 [Compound 5, Physodic acid] | > 250 | failed to inhibit LF |  |  |  |  |  |  | 
3 | Reduced stictic acid [Compound 8] |  |  | > 250 |  |  |  |  |  | 
4 | COC(=O)c1c(OC)cc2c(c1C)Oc1c(Cl)c(O)c(Cl)c(C)c1C(=O)O2 [Compound 4, Gangaleoidin] | > 250 | failed to inhibit LF |  |  |  |  |  |  | 
5 | COc1cc(C)c2c(c1C=O)Oc1c(c(C)c(O)c3c1C(O)OC3=O)OC2=O (centres unmarked) [Compound 1, Stictic acid] | 24 ± 3 |  |  | inhibited cleavage | inhibited cleavage | weak inhibitors | decreased MKK3 cleavage | partial protection | 
6 | COC(=O)c1c(C)cc(OC(=O)c2c(C)cc(O)c(C=O)c2O)c(C)c1O [Compound 7, Atranorin] |  | lack of inhibition |  |  |  |  |  | failed to inhibit cell death | IC50 (µM), MKK6 cleavage [1]: No inhibition
7 | CNC(=O)[C@H](Cc1c[nH]c2ccccc12)NC(=O)[C@@H](CC(=O)NO)CC(C)C [GM6001, reference compound] |  |  |  |  |  |  |  |  | IC50 [3]: 9 µM; Result in primary FP screen for inhibition of LF cleavage of labeled MKK6 [6]: scored as a hit
8 | Cc1cc(OC(=O)c2c(C)cc(O)cc2O)cc(O)c1C(=O)O [Compound 6, Lecanoric acid] |  | lack of inhibition |  |  |  |  |  | failed to inhibit cell death | IC50 (µM), MKK6 cleavage [1]: No inhibition
9 | COc1cc(C(=O)O)c2c(c1C)OC(=O)c1c(C)cc(O)c(C=O)c1O2 [Compound 3, Parellic acid] |  | active as inhibitors | 125 ± 20 | inhibited cleavage | inhibited cleavage | weak inhibitors | decreased MKK3 cleavage | partial protection | 
10 | Cc1cc(O)c(C=O)c2c1C(=O)Oc1c(CO)c(O)c3c(c1O2)C(O)OC3=O (centres unmarked) [Compound 2, Salazinic acid] |  | active as inhibitors | 42 ± 5 | inhibited cleavage | inhibited cleavage | weak inhibitors | decreased MKK3 cleavage | partial protection | Mode of inhibition of LF cleavage of MKK6 [1]: competitive inhibition; also recorded: increased KM with no effect on Vmax
